Assay results reported in publication PMC4368451 (Cancer chemotherapy and pharmacology, 2015).

Columns and labels:
[1] = tested on: SW620 (colorectal adenocarcinoma) cells; test: Cell cycle distribution; type: cell-based; details: SW620, 24 hours
[2] = Prodrug processing in plasma or whole blood; type: in vitro ADME
A549 tumor = type: in vivo, Female athymic NCr-nu/nu nude mice; details: 5 mg/kg i.p. on four consecutive days
[3] = tested on: A549 non-small cell lung carcinoma xenograft; test: A549 xenograft model; type: in vivo, Female athymic NCr-nu/nu nude mice; details: for TGI % (tumor growth inhibition): 5 mg/kg i.p. every other day for 13 days, day 23, relative to control; for tumor growth: 5 mg/kg i.p. every other day for thirteen days

Compound	cell cycle dose dependence [1]	concentration for G2 arrest [1] [nM]	prodrug level after room temperature incubation in plasma or whole blood [2]	acetylated H3 and H4 in tumor lysates (western blot) relative to control (A549 tumor)	TGI % (tumor growth inhibition) [3] [%]	TGI % (tumor growth inhibition) ([3]; listed as Larg.) [%]	tumor growth [3]
CCCCCCCC(=O)SCC/C=C/[C@@H]1CC(=O)NCc2nc(cs2)C2=N[C@@](C)(CS2)C(=O)N[C@@H](C(C)C)C(=O)O1 [Largazole]	clear switch from G1 to G2 arrest with increasing concentration	> 50	< LLOQ after ten minutes	increased acetylation relative to control	32	32	tumor growth rate was slower
Largazole thiol	–	–	–	–	–	–	tumor growth rate was slower
